According to US20250230193A1, “CYCLIC COMPOUND HAVING SELECTIVE KRAS INHIBITORY EFFECT ON HRAS AND NRAS” (CHUGAI SEIYAKU KABUSHIKI KAISHA, priority 2022, published 2025):
Where a SMILES comes first, the peptide text is derived from it. Bridges are numbered along the chain shown (N, C = ends). [ ]: non-standard residue; d: D form. The star is where a group is joined. hPhe(3-Cl-4-CF3) = N[C@@H](CCc1ccc(C(F)(F)F)c(Cl)c1)C(=O)O; NPrPhe(4-CF3) = CCCN[C@@H](Cc1ccc(C(F)(F)F)cc1)C(=O)O; NEtPhe(4-Me) = CCN[C@@H](Cc1ccc(C)cc1)C(=O)O; NMeGly(cPent) = CN[C@H](C(=O)O)C1CCCC1; Pro(4,4-Me2) = CC1(C)CN[C@H](C(=O)O)C1; NMeD = CN[C@@H](CC(=O)O)C(=O)O; NMeL = CN[C@@H](CC(C)C)C(=O)O; Morpholide = C1CN(*)CCO1; NMeA = CN[C@@H](C)C(=O)O; NMeAib = CNC(C)(C)C(=O)O; Nle = CCCC[C@H](N)C(=O)O; Piperidide = C1CCN(*)CC1; Ac5c = NC1(C(=O)O)CCCC1; Aze = O=C(O)[C@@H]1CCN1; Sar = CNCC(=O)O

How the values were obtained:
[1] = target: GDP-bound HRAS wild-type protein (Homo sapiens, UniProt P01112); assay: Binding to HRAS by surface plasmon resonance (SPR), Single Cycle Kinetics
Chain of GDP-bound HRAS wild-type protein (P01112 whole entry): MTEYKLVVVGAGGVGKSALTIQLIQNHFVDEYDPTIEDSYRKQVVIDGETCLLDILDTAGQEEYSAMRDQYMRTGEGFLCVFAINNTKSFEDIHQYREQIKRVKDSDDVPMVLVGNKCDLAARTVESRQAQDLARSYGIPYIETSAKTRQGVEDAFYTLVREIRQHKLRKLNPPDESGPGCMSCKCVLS

[2] = target: GDP-bound NRAS wild-type protein (Homo sapiens, UniProt P01111); assay: Binding to NRAS by surface plasmon resonance (SPR), Single Cycle Kinetics
Chain of GDP-bound NRAS wild-type protein (P01111 whole entry): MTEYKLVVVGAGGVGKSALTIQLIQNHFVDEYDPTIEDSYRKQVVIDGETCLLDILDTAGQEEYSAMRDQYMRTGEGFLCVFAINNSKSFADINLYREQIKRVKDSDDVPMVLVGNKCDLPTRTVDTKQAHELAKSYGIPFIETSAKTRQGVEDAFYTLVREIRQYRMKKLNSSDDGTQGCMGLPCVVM

[3] = KD ratio, GDP-bound HRAS wild-type vs GDP-bound KRAS wild-type, SPR
[4] = KD ratio, GDP-bound NRAS wild-type vs GDP-bound KRAS wild-type, SPR

Compound: CCCN1C(=O)CN(C)C(=O)CNC(=O)[C@H]([C@@H](C)CC)NC(=O)[C@H](CC(C)C)N(C)C(=O)C[C@@H](C(=O)N2CCOCC2)N(C)C(=O)[C@H](C2CCCC2)N(C)C(=O)C2(CCCC2)NC(=O)[C@@H]2CC(C)(C)CN2C(=O)[C@H](CCc2ccc(C(F)(F)F)c(Cl)c2)NC(=O)CN(C)C(=O)[C@@H]1Cc1ccc(C(F)(F)F)cc1 [PP0448] ([NMeL]IG[Sar][NPrPhe(4-CF3)][Sar][hPhe(3-Cl-4-CF3)][Pro(4,4-Me2)][Ac5c][NMeGly(cPent)][NMeD]-Morpholide; lactam N-11)
- HRAS/KRAS (ratio of KD value with respect to GDP-bound HRAS wild-type protein to KD value with respect to KRAS) ([1]; KD ratio HRAS/KRAS, SPR): C (A compound having a KD ratio of 0.1 or more and less than 3 is denoted as C)
- NRAS/KRAS (ratio of KD value with respect to GDP-bound NRAS wild-type protein to KD value with respect to KRAS) ([2]; KD ratio NRAS/KRAS, SPR): B (a compound having 3 or more and less than 10 is denoted as B)

Compound: CCCC[C@@H]1NC(=O)[C@H](CCc2ccc(C(F)(F)F)c(Cl)c2)NC(=O)CN(C)C(=O)[C@H](Cc2ccc(C)cc2)N(CC)C(=O)[C@@H]2CCN2C(=O)[C@H](C)N(C)C(=O)[C@H]([C@@H](C)CC)NC(=O)[C@H](CC(C)C)N(C)C(=O)C[C@@H](C(=O)N2CCCCC2)N(C)C(=O)[C@H](CC(C)C)NC(=O)C(C)(C)N(C)C1=O [PP0048] ([NMeL]I[NMeA][Aze][NEtPhe(4-Me)][Sar][hPhe(3-Cl-4-CF3)][Nle][NMeAib]L[NMeD]-Piperidide; lactam N-11)
- HRAS/KRAS (ratio of KD for GDP-bound HRAS wild-type to KD for KRAS) ([1]; KD ratio HRAS/KRAS, SPR): C (A compound having a KD ratio of 0.1 or more and less than 3 is denoted as C)
- NRAS/KRAS (ratio of KD for GDP-bound NRAS wild-type to KD for KRAS) ([2]; KD ratio NRAS/KRAS, SPR): C (A compound having a KD ratio of 0.1 or more and less than 3 is denoted as C)

Compound: CCO[C@@H]1C[C@H]2C(=O)NC3(CC(C)(C)C3)C(=O)N(C)[C@@H](C(CC)CC)C(=O)N(C)[C@H](C(=O)N(C)C)CC(=O)N(C)[C@@H](COC)C(=O)N[C@@H]([C@@H](C)CC)C(=O)N(C3CC3)CC(=O)N(C)[C@H]3C/C=C\CCN(C3=O)[C@@H](CC3CCCCC3)C(=O)N(C)CC(=O)N[C@@H](CCc3cc(F)c(C(F)(F)F)c(F)c3)C(=O)N2C1 [PP2564]
- HRAS/KRAS (ratio of KD value with respect to GDP-bound HRAS wild-type protein to KD value with respect to KRAS) ([1]; KD ratio HRAS/KRAS, class symbols): A (a compound having 10 or more and less than 20 is denoted as A)
- NRAS/KRAS (ratio of KD value with respect to GDP-bound NRAS wild-type protein to KD value with respect to KRAS) ([2]; KD ratio NRAS/KRAS, class symbols): A (a compound having 10 or more and less than 20 is denoted as A)

Compound: CC[C@H](C)[C@@H]1NC(=O)[C@H](CC(C)C)N(C)C(=O)C[C@@H](C(=O)N2CCOCC2)N(C)C(=O)[C@H](C2CCCC2)N(C)C(=O)C2(CCCC2)NC(=O)[C@@H]2CCCN2C(=O)[C@H](CCc2ccc(C(F)(F)F)c(Cl)c2)NC(=O)CN(C)C(=O)[C@H](Cc2ccc(C(F)(F)F)cc2)N2CC/C=C\C[C@@H](C2=O)N(C)C(=O)CN(C)C1=O [PP0463]
- HRAS/KRAS (ratio of KD value with respect to GDP-bound HRAS wild-type protein to KD value with respect to KRAS) ([1]; KD ratio HRAS/KRAS, SPR): A (a compound having 10 or more and less than 20 is denoted as A)
- NRAS/KRAS (ratio of KD value with respect to GDP-bound NRAS wild-type protein to KD value with respect to KRAS) ([2]; KD ratio NRAS/KRAS, SPR): A (a compound having 10 or more and less than 20 is denoted as A)

Compound: CC[C@H](C)[C@@H]1NC(=O)[C@H](CC)N(C)C(=O)C[C@@H](C(=O)N(C)C)N(C)C(=O)[C@H](C2CCCC2)N(C)C(=O)C2(CC(C)(C)C2)NC(=O)[C@@H]2C[C@H](C)CN2C(=O)[C@H](CCc2cc(F)c(C(F)(F)F)c(F)c2)NC(=O)CN(C)C(=O)[C@H](Cc2ccc(C)cc2)N2CC/C=C\C[C@@H](C2=O)N(C)C(=O)CN(C)C1=O [PP1856]
- HRAS/KRAS (ratio of KD value for HRAS to KD value for KRAS) [1, 3]: A (a compound having 10 or more and less than 20 is denoted as A)
- NRAS/KRAS (ratio of KD value for NRAS to KD value for KRAS) [2, 4]: A (a compound having 10 or more and less than 20 is denoted as A)

Compound: CCO[C@@H]1C[C@H]2C(=O)NC3(CCC3)C(=O)N(C)[C@@H](C3CCCC3)C(=O)N(C)[C@H](C(=O)N(C)C)CC(=O)N(C)[C@@H](CC)C(=O)N[C@@H]([C@@H](C)CC)C(=O)N(C)CC(=O)N(C)[C@H]3CCCCN(C3=O)[C@@H](Cc3ccc(C(F)(F)F)cc3)C(=O)N(C)CC(=O)N[C@@H](CCc3ccc(Cl)c(Cl)c3)C(=O)N2C1 [PP0987]
- HRAS/KRAS (ratio of KD value with respect to HRAS to KD value with respect to KRAS) [1, 3]: C (A compound having a KD ratio of 0.1 or more and less than 3 is denoted as C)
- NRAS/KRAS (ratio of KD value with respect to NRAS to KD value with respect to KRAS) [2, 4]: C (A compound having a KD ratio of 0.1 or more and less than 3 is denoted as C)

Compound: CCC[C@H]1C(=O)N[C@@H]([C@@H](C)CC)C(=O)N(C)CC(=O)N(C)[C@H]2C/C=C\CCN(C2=O)[C@@H](Cc2ccc(C(F)(F)F)cc2)C(=O)N(C)CC(=O)N[C@@H](CCc2cc(F)c(C(F)(F)F)c(F)c2)C(=O)N2C[C@H](OCC)C[C@H]2C(=O)N(C)C2(CCC2)C(=O)N(C)[C@@H](C2CCCC2)C(=O)N(C)[C@H](C(=O)N2CCCC2)CC(=O)N1C [PP3120, (2S,8S,12R,14S,20S,23S,27S,30S,36S,38Z)-20-cyclopentyl-8-[2-[3,5-difluoro-4-(trifluoromethyl)phenyl]ethyl]-12-ethoxy-4,16,19,22,26,32,35-heptamethyl-30-[(1S)-1-methylpropyl]-27-propyl-23-(pyrrolidine-1-carbonyl)-2-[[4-(trifluoromethyl)phenyl]methyl]spiro[1,4,7,10,16,19,22,26,29,32,35-undecazatricyclo[34.5.1.0^10,14]dotetracont-38-ene-17,1′-cyclobutane]-3,6,9,15,18,21,25,28,31,34,42-undecone]
- HRAS/KRAS (ratio of KD value with respect to GDP-bound HRAS wild-type protein to KD value with respect to KRAS) ([1]; KD ratio HRAS/KRAS, SPR, GDP-bound wild-type proteins): A (a compound having 10 or more and less than 20 is denoted as A)
- NRAS/KRAS (ratio of KD value with respect to GDP-bound NRAS wild-type protein to KD value with respect to KRAS) ([2]; KD ratio NRAS/KRAS, SPR, GDP-bound wild-type proteins): AA (a compound having 20 or more is denoted as AA)
